Measured values reported in US8952024B2, “Herbicidal pyrimidone derivatives” (E I du Pont de Nemours and Company, priority 2009, dated 2015).

How the values were obtained:
Assay type in all cases: in vivo
[1] = test system: cocklebur (Xanthium strumarium); assay: Test B pre-/postemergence plant response; conditions: for Plant response rating, Cocklebur: Postemergence
In short: (§1)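 Greenhouse herbicide screen. Pre- and postemergence (1- to 4-leaf) spray of compound in solvent/surfactant mixture; loam–sand soil for pre, peat/vermiculite medium for post. Visual control rating 0–100 at 13 to 15 days after treatment.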

[2] = test system: goosegrass (Eleusine indica); assay: Test B pre-/postemergence plant response; conditions: for Plant response rating, Goosegrass: Postemergence
In short: as §1

[3] = test system: johnsongrass (Sorghum halepense); assay: Test B pre-/postemergence plant response; conditions: for Plant response rating, Johnsongrass: Postemergence
In short: as §1

[4] = test system: kochia (Kochia scoparia); assay: Test B pre-/postemergence plant response; conditions: for Plant response rating, Kochia: Postemergence
In short: as §1

[5] = test system: pigweed (Amaranthus retroflexus); assay: Test B pre-/postemergence plant response; conditions: for Plant response rating, Pigweed: Postemergence
In short: as §1

[6] = test system: ragweed (common ragweed, Ambrosia elatior); assay: Test B pre-/postemergence plant response; conditions: for Plant response rating, Ragweed: Postemergence
In short: as §1

[7] = test system: soybean (Glycine max); assay: Test B pre-/postemergence plant response; conditions: for Plant response rating, Soybean: Postemergence
In short: as §1

[8] = test system: velvetleaf (Abutilon theophrasti); assay: Test B pre-/postemergence plant response; conditions: for Plant response rating, Velvetleaf: Postemergence
In short: as §1

[9] = test system: wheat (Triticum aestivum); assay: Test B pre-/postemergence plant response; conditions: for Plant response rating, Wheat: Postemergence
In short: as §1

[10] = test system: wild oat (Avena fatua); assay: Test B pre-/postemergence plant response; conditions: for Plant response rating, Oat, Wild: Postemergence
In short: as §1

[11] = test system: canarygrass (Phalaris minor); assay: Test B postemergence plant response; conditions: for Plant response rating, Canarygrass: Postemergence
In short: (§2)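 Visual ratings from 0 (no effect) to 100 (complete control), made against controls 13–15 days after treatment, kept in a greenhouse. Compounds were applied postemergence to potted plants at the 1- to 4-leaf stage (2–18 cm).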

[12] = test system: chickweed (Stellaria media); assay: Test B postemergence plant response; conditions: for Plant response rating, Chickweed: Postemergence
In short: as §2

[13] = test system: windgrass (Apera spica-venti); assay: Test B postemergence plant response; conditions: for Plant response rating, Windgrass: Postemergence
In short: as §2

[14] = 62 g ai/ha, postemergence, 0 is no effect, 100 is complete control, 13 to 15 days
[15] = 31 g ai/ha, 0 to 100 scale (0 no effect, 100 complete control)
[16] = 125 g ai/ha, scale 0 to 100 (0 no effect, 100 complete control)
[17] = 250 g ai/ha, scale 0 to 100 (0 no effect, 100 complete control)

COCCn1c(-c2cccc(F)c2)ncc(C(=O)C2=C(O)CCCC2=O)c1=O [Compound 123]
Cocklebur plant response rating (0 to 100 scale) [1, 14]: 80
Plant response rating, Cocklebur [1, 15]: 65
Plant response rating, Cocklebur [1, 16]: 100
Plant response rating, Cocklebur [1, 17]: 100
Goosegrass plant response rating (0 to 100 scale) [2, 14]: 65
Plant response rating, Goosegrass [2, 15]: 65
Plant response rating, Goosegrass [2, 16]: 80
Plant response rating, Goosegrass [2, 17]: 85
Johnsongrass plant response rating (0 to 100 scale) [3, 14]: 65
Plant response rating, Johnsongrass [3, 15]: 35
Plant response rating, Johnsongrass [3, 16]: 75
Plant response rating, Johnsongrass [3, 17]: 90
Kochia plant response rating (0 to 100 scale) [4, 14]: 65
Plant response rating, Kochia [4, 15]: 60
Plant response rating, Kochia [4, 16]: 80
Plant response rating, Kochia [4, 17]: 100
Pigweed plant response rating (0 to 100 scale) [5, 14]: 98
Plant response rating, Pigweed [5, 15]: 80
Plant response rating, Pigweed [5, 16]: 100
Plant response rating, Pigweed [5, 17]: 100
Ragweed plant response rating (0 to 100 scale) [6, 14]: 85
Plant response rating, Ragweed [6, 15]: 70
Plant response rating, Ragweed [6, 16]: 95
Plant response rating, Ragweed [6, 17]: 98
Soybean plant response rating (0 to 100 scale) [7, 14]: 75
Plant response rating, Soybean [7, 15]: 60
Plant response rating, Soybean [7, 16]: 85
Plant response rating, Soybean [7, 17]: 90
Velvetleaf plant response rating (0 to 100 scale) [8, 14]: 90
Plant response rating, Velvetleaf [8, 15]: 80
Plant response rating, Velvetleaf [8, 16]: 95
Plant response rating, Velvetleaf [8, 17]: 100
Wheat plant response rating (0 to 100 scale) [9, 14]: 15
Plant response rating, Wheat [9, 15]: 10
Plant response rating, Wheat [9, 16]: 15
Oat, Wild plant response rating (0 to 100 scale) [10, 14]: 5
Plant response rating, Oat, Wild [10, 15]: 0
Plant response rating, Oat, Wild [10, 16]: 30
Plant response rating, Oat, Wild [10, 17]: 60
Canarygrass plant response rating (0 to 100 scale) [11, 14]: 40
Plant response rating, Canarygrass [11, 15]: 25
Plant response rating, Canarygrass [11, 16]: 55
Plant response rating, Canarygrass [11, 17]: 85
Chickweed plant response rating (0 to 100 scale) [12, 14]: 75
Plant response rating, Chickweed [12, 15]: 70
Plant response rating, Chickweed [12, 16]: 95
Plant response rating, Chickweed [12, 17]: 100
Windgrass plant response rating (0 to 100 scale) [13, 14]: 60
Plant response rating, Windgrass [13, 15]: 30
Plant response rating, Windgrass [13, 16]: 80
